Experimental data from patent US20130230580A1, “Administration of SNS Neuroprotective Agents to Promote Hematopoietic Regeneration” (priority 2010, published 2013).
Values joined by “and” are separate entries in the source; they are usually repeats but may differ in a detail not shown here. Equal values may be shown once. “Also recorded” adds a separate entry of the source.

Columns and labels:
[1] = Survival after 5FU injection in 60HDA-sympathectomized mice; type: in vivo
Protocol: (§1) To induce acute peripheral sympathectomy, mice received two i.p. injections of 60HDA (Sigma; 100 mg/kg on day 0; 250 mg/kg on day 2). Three days after the last injection of 60HDA mice were euthanized for analysis, transplanted (see below) or injected with 5-fluorouracil (see below).
(§2) To induce bone marrow ablation and force quiescent HSC to proliferate, 5FU (250 mg/kg; Sigma) was injected i.v. under isoflurane (Phoenix Pharmaceuticals) anesthesia. Mice were allowed to recover and analyzed at the indicated time points.
(§3) To induce neuroprotection from 60HDA, mice were injected with 4-MC (10 μg/kg; i.p.) or GDNF-Fc (5 μg per mice; s.c.) for 5 days, starting the treatment the same day as the first injection of 60HDA.

[2] = Complete blood counts of moribund 6OHDA-treated mice after 5FU; type: in vivo; conditions: for CH / CHCM / HDW / HCT / Hgb / MCH / MCHC / RDW: moribund 6OHOA-treated mouse
Protocol: as §1, §2
(§4) Blood was harvested by retro-orbital sampling of mice anesthetized with isoflurane and collected in polypropylene tubes containing ethylenediaminetetraacetic acid (EDTA). Blood parameters were determined with an AcT differential counter (Beckman-Coulter). CFU-C assays were performed as described in He et al., Ann. Rev. Cell. Dev. Biol. 25:377 (2009), incorporated herein by reference. For flow cytometry, red blood cells were lysed thrice for 5 minutes at 4° C. in 0.15 M NH4Cl, cells were washed once in ice-cold PBS and counted in a hemocytometer. To determine Lin^−Sca1^+c-kit^+ or Lin^−Sca1^+c-kit^+ft13^− numbers, 10^6 cells were stained with the Mouse Lineage Panel (BD Biosciences) together with FITC-conjugated anti-Sca-1 antibody (BD Biosciences), PE-Cy7-conjugated anti-c-kit antibody (eBioscience) and PE-conjugated anti-flt3 antibody (eBioscience). Cells were further stained with streptavidin-Cy5 (Jackson Immunotech) and analyzed with a BD LSR11 system (BD Biosciences). Bone marrow was harvested by flushing the bone with 1 mL of ice-cold PBS, red blood cells were lysed once for 5 minutes at 4° C. in 0.15 M NH4Cl, cells were washed once in ice-cold PBS and counted with a hemocytometer. CFU-C and Lin^−Sca1^+c-kit^+ft13^− numbers were determined as above. In some experiments, CD150^+CD48^− cell numbers were determined by staining 5×10^6 cells with PE-anti-CD48 antibody (BD Biosciences) and PE-Cy7-anti-CD150 antibody (Biolegend).

[3] = system: bone marrow; assay: Bone marrow hematopoietic recovery after transplantation (BMNC, CFU-C, Lin-Sca1+c-kit+flt3- cells); type: in vivo, mice; conditions: for hematopoietic recovery in BM after transplantation (progenitors, Lin-Sca1+c-kit+flt3- cells, total BM): about 4 weeks / 30 days post-transplantation, vs saline
Protocol: Mice were irradiated (1,200 cGy, two split doses, 3 hours apart) in a Cesium Mark 1 irradiator (JL Shepperd & associates). Three hours later, the indicated number of BMNCs was injected retroorbitally in the irradiated recipients under isoflurane (Phoenix Pharmaceuticals) anesthesia. Mice were allowed to recover and analyzed at the indicated time points. […]
as §4

[4] = system: bone marrow; assay: CFU-C homing efficiency to bone marrow; type: in vivo; conditions: compared to control mice, 24 hours after irradiation and BMNC injection
[5] = system: Nestin+ niche cells; assay: HSC niche cell analyses (Nestin+ cells, osteoblasts, endothelial cells, macrophages, α-SMA+ cells); type: in vivo
Description: Since the SNS directs HSC trafficking by acting on Nestin^+ niche cells through the β3 adrenergic receptor, the changes that occurred in the HSC niche after SNS injury and genotoxic insult were investigated. […] The reason for reduced Nestin^+ numbers in SNS-injured mice during BM recovery was then investigated.

[6] = Survival after lethal irradiation and bone marrow transplantation; type: in vivo
Protocol: To protect from kidney damage, mice were simultaneously subcutaneously (s.c.) injected with 1 mL of saline solution.
as §1
Mice were irradiated (1,200 cGy, two split doses, 3 hours apart) in a Cesium Mark 1 irradiator (JL Shepperd & associates). Three hours later, the indicated number of BMNCs was injected retroorbitally in the irradiated recipients under isoflurane (Phoenix Pharmaceuticals) anesthesia. Mice were allowed to recover and analyzed at the indicated time points.
as §3

[7] = system: bone marrow; assay: Bone marrow regeneration after 5FU (or sublethal irradiation) in 60HDA-sympathectomized mice; type: in vivo
Protocol: as §1, §2, §3, §4

[8] = system: bone marrow; assay: Steady-state bone marrow analysis after cisplatin or 60HDA treatment; type: in vivo, mice; conditions: 3 days after last 60HDA injection
Protocol: To protect from kidney damage, mice were simultaneously subcutaneously (s.c.) injected with 1 mL of saline solution. Four weeks after the last injection of cisplatin, mice were euthanized for analysis, transplanted (see below) or mobilized with granulocyte colony-stimulating factor (G-CSF, see below).
as §1
Blood was harvested by retro-orbital sampling of mice anesthetized with isoflurane and collected in polypropylene tubes containing ethylenediaminetetraacetic acid (EDTA). Blood parameters were determined with an AcT differential counter (Beckman-Coulter). […] For flow cytometry, red blood cells were lysed thrice for 5 minutes at 4° C. in 0.15 M NH4Cl, cells were washed once in ice-cold PBS and counted in a hemocytometer. […] Cells were further stained with streptavidin-Cy5 (Jackson Immunotech) and analyzed with a BD LSR11 system (BD Biosciences). Bone marrow was harvested by flushing the bone with 1 mL of ice-cold PBS, red blood cells were lysed once for 5 minutes at 4° C. in 0.15 M NH4Cl, cells were washed once in ice-cold PBS and counted with a hemocytometer. […]

[9] = molecular target: T1, β3 adrenergic receptors (Mus musculus, UniProt P25962); assay: β3 adrenergic blockade during 5FU-induced BM regeneration; type: in vivo, mice
T1 construct: β3 adrenergic receptors expressed by niche cells; from tissue; host or cells: live mice (wild-type or Adrb2-/-); receptor expressed by bone marrow niche cells
T1 sequence (P25962 whole entry): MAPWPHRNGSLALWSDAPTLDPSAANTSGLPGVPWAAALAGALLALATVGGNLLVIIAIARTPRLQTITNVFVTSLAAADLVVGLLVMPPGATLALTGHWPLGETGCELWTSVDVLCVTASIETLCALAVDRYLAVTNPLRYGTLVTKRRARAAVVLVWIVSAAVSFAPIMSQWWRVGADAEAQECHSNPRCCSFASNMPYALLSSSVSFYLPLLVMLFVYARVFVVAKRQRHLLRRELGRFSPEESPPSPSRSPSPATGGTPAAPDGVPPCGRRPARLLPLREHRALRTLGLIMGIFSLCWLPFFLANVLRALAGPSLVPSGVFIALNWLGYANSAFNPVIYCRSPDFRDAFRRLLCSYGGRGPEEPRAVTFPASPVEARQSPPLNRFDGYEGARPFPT
Protocol: as §2
To investigate the role of β2 or β3 adrenergic receptors in bone marrow regeneration, β3 adrenergic signaling was blocked in wild-type or Adrb2^tm1Bkk/J mice by injecting the β3-specific antagonist SR59230A (5 mg/kg, i.p.; Sigma), daily for 3 days.

[10] = system: TH+ fibers; assay: Immunofluorescence quantification of TH+ sympathetic fibers in bone marrow / calvaria
Protocol: Bones were collected and fixed for 1 hour in 4% paraformaldehyde (PFA) in PBS (Electron Microscopy Sciences) at 4° C. They were then post-fixed overnight in 1% PFA in PBS at 4° C. and cryoprotected for 24 hours in 30% sucrose. Bones were then included in OCT (Tissue Tek), sectioned (14 μm sections) in a Cryostat, and mounted on CFSA 4× Slides (Leica). TH^+ immunofluorescence staining was performed as previously described in Mendez-Ferrer, et al., Nature 452:442 (2008), incorporated herein by reference. For each mouse analyzed, the number of nerve fibers in 6 fields was quantified and plotted as per mm^2. For whole-mount immunofluorescence, calvaria were harvested by cutting along the temporal lines of the skull and immediately fixed in methanol. Bone tissues were blocked/permeabilized in PBS containing 20% FCS and 0.5% Triton and stained with APC-conjugated anti-PECAM CD31 antibody and TH (Millipore). Signal amplification for TH staining was achieved by using a signal amplification kit (Perkin Elmer). Whole-mount tissues were imaged face-down on an upright Olympus BX61WI microscope. The area between the frontal and parietal bones was identified by moving along the coronal suture and images were obtained from the same area for all mice, along the coronal vein on either side of the central vein. The numbers of individual nerve fibers running alongside blood vessels were quantified and plotted as per 100 μm vessel segment. All images were processed using Slidebook software (Intelligent Imaging Innovations, Inc.).

[11] = 10 days after 5FU (250 mg/kg), listed as 6OHOA
[12] = 60HDA-treated mice, eight days after 5FU
[13] = 60HDA-lesioned mice plus agent, 12 days after 5FU
[14] = cisplatin-treated mice plus 4-MC

NCCc1cc(O)c(O)cc1O [60HDA, 6-hydroxydopamine]
survival after 5FU ([1]; 60HDA-sympathectomized vs saline mice): dramatically reduced their survival | cause of reduced survival after 5FU ([2]; 60HDA-sympathectomized mice): BM failure | CH ([2]; 8 days after 5FU (250 mg/kg)): 13.3 pg and 12.8 pg and 12.9 pg | CHCM ([2]; 8 days after 5FU (250 mg/kg)): 32.8 g·dL and 31.8 g·dL and 31.2 g·dL | HDW ([2]; 8 days after 5FU (250 mg/kg)): 2.34 g·dL and 1.78 g·dL and 1.74 g·dL | CH ([2]; 9 days after 5FU (250 mg/kg)): 13.5 pg | CHCM ([2]; 9 days after 5FU (250 mg/kg)): 33.7 g·dL and 33 g·dL | HCT ([2]; 9 days after 5FU (250 mg/kg)): 11 | HDW ([2]; 9 days after 5FU (250 mg/kg)): 2.27 g·dL and 2.34 g·dL | Hgb ([2]; 9 days after 5FU (250 mg/kg)): 3 g·dL | MCH ([2]; 9 days after 5FU (250 mg/kg)): 9.7 pg and 9.1 pg | MCHC ([2]; 9 days after 5FU (250 mg/kg)): 24.3 g·dL and 22.3 g·dL | RDW ([2]; 9 days after 5FU (250 mg/kg)): 12.5 and 12.6 | CH [2, 11]: 12.8 pg and 12.9 pg | CHCM [2, 11]: 29.3 g·dL and 30.5 g·dL | HCT [2, 11]: 13 and 10 | HDW [2, 11]: 1.67 g·dL and 2.03 g·dL | Hgb [2, 11]: 4 g·dL and 6 g·dL | MCH [2, 11]: 12.8 pg and 18.9 pg | MCHC [2, 11]: 29.3 g·dL and 44.4 g·dL | RDW [2, 11]: 12.2 and 13.2 | CH ([2]; 11 days after 5FU (250 mg/kg)): 13.2 pg | CHCM ([2]; 11 days after 5FU (250 mg/kg)): 30.7 g·dL | HCT ([2]; 11 days after 5FU (250 mg/kg)): 14 | HDW ([2]; 11 days after 5FU (250 mg/kg)): 1.95 g·dL | Hgb ([2]; 11 days after 5FU (250 mg/kg)): 3 g·dL | MCH ([2]; 11 days after 5FU (250 mg/kg)): 10.5 pg | MCHC ([2]; 11 days after 5FU (250 mg/kg)): 24.3 g·dL | RDW ([2]; 11 days after 5FU (250 mg/kg)): 11.3 | CH ([2]; 12 days after 5FU (250 mg/kg)): 12.6 pg | CHCM ([2]; 12 days after 5FU (250 mg/kg)): 31.1 g·dL | HCT ([2]; 12 days after 5FU (250 mg/kg)): 15 | HDW ([2]; 12 days after 5FU (250 mg/kg)): 2.31 g·dL | Hgb ([2]; 12 days after 5FU (250 mg/kg)): 3 g·dL | MCH ([2]; 12 days after 5FU (250 mg/kg)): 9.3 pg | MCHC ([2]; 12 days after 5FU (250 mg/kg)): 22.9 g·dL | RDW ([2]; 12 days after 5FU (250 mg/kg)): 13.5 | hematopoietic recovery in BM after transplantation (progenitors, Lin-Sca1+c-kit+flt3- cells, total BM) [3]: significant reductions in hematopoietic recovery; also recorded: delayed hematopoietic recovery | CFU-C homing efficiency [4]: No differences; also recorded: No defect | Nestin+ cell death (apoptosis) ([5]; 60HDA mice, 24 hours after 5FU): significant increase | endothelial cells, BM monocyte/macrophages, α-SMA+ perivascular cells 12 days after 5FU ([5]; 60HDA- vs saline-treated mice): failed to detect differences | Nestin+ cell numbers 12 days after 5FU ([5]; 60HDA-sympathectomized mice): severe deficit | endothelial cells, osteoblasts, CD68+ cells, α-SMA+ perivascular cells by immunofluorescence prior to 5FU ([5]; 60HDA-treated vs saline mice): did not reveal differences | number of Nestin+ cells prior to 5FU ([5]; 60HDA-treated vs saline mice): significant increase | osteoblast numbers prior to 5FU ([5]; 60HDA-treated vs saline mice): slightly increased | mortality after transplantation ([6]; lethally irradiated, transplanted with wild-type BMNC): significant increase in mortality | hematopoietic recovery after 5FU ([7]; 60HDA-sympathectomized mice, day 12): significantly impaired hematopoietic recovery | BM recovery after sublethal irradiation ([7]; 60HDA-treated mice, 12 days after irradiation): Reduced BM recovery | Lin-Sca1+c-kit+flt3- cell expansion after 5FU ([7]; 60HDA-treated mice, days 4 to 12): blunted | LSK cell proliferation [7, 12]: increased proliferation | LSK cell viability [7, 12]: reduced viability | BM cellularity, CFU-C, Lin-Sca1+c-kit+flt3-, CD48-CD150+ cell numbers, Lin-Sca1+c-kit+ cell cycling [8]: did not alter; also recorded: does not induce significant changes

N.N.O=C([O-])C1(C(=O)[O-])CCC1.[Pt+2] [carboplatin]
hematopoietic recovery in BM after transplantation (progenitors, Lin-Sca1+c-kit+flt3- cells, total BM) [3]: not

CC[C@]1(O)C[C@H]2CN(CCc3c([nH]c4ccccc34)[C@@](C(=O)OC)(c3cc4c(cc3OC)N(C=O)[C@H]3[C@@](O)(C(=O)OC)[C@H](OC(C)=O)[C@]5(CC)C=CCN6CC[C@]43[C@@H]65)C2)C1 [vincristine]
BM recovery 3 months after transplantation ([3]; mouse, in vivo): not yet completely recovered | HSC content by competitive repopulation assays ([3]; mouse, in vivo): reduced HSC content

CCc1ccccc1OC[C@@H](O)CN[C@H]1CCCc2ccccc21 [SR59230A]
hematopoietic regeneration after 5FU with both β2 and β3 receptors disrupted ([9]; Adrb2-/- mice plus SR59230A): most severe impairment; also recorded: severe impairment in hematopoietic regeneration | hematopoietic recovery after 5FU under β3 blockade ([9]; wild-type mice, SR59230A alone): sufficient to impair hematopoietic regeneration; also recorded: partially compromised hematopoietic recovery

Cc1ccc(O)c(O)c1 [4-MC, 4-methylcatechol]
survival after 5FU with neuroprotective agent ([1]; 60HDA-lesioned mice plus agent): completely protected from death; also recorded: completely abolished 5FU-associated cell death | HSC frequency and absolute numbers (LTC-IC, competitive repopulation assays) ([3]; cisplatin-treated mice plus 4-MC, after transplantation): higher frequency and absolute numbers of HSC | bone marrow regeneration after transplantation with neuroprotective agent (BM cellularity, progenitor counts, LSKF cells) ([3]; cisplatin-treated mice plus agent, one month after transplantation): accelerated bone marrow regeneration; also recorded: significantly improves hematopoietic cell counts | TH+ / SNS fiber recovery [10, 13]: induced TH^+ fiber recovery; also recorded: significant recovery in the number of BM SNS fibers; also recorded: protects sympathetic fibers | increase in bone marrow TH+ fiber density ([10]; cisplatin+4-MC compared to cisplatin+saline, p<0.05): 2 fold | Nestin+ cell number 12 days after 5FU ([5]; 60HDA mice plus 4-MC): restored normal Nestin^+ cell number | SNS-injury-induced expansion of Nestin+ cells and osteoblasts prior to 5FU ([5]; 60HDA mice plus 4-MC): abolished the expansion | other niche cells (endothelial cells, BM macrophages, perivascular α-SMA cells) ([5]; 60HDA mice plus 4-MC, before or after 5FU): did not affect other niche cells | endothelial cells, BM macrophages, perivascular α-SMA+ cells before BMT [5, 14]: without affecting | expansion in Nestin+ cells and osteoblasts before BMT [5, 14]: ameliorated the expansion | survival after transplantation with neuroprotective agent ([6]; cisplatin-treated mice plus agent): no death was observed; also recorded: completely abolished transplant-associated death; also recorded: completely prevented neuropathy-induced death | HSC recovery by competitive repopulation assays ([7]; 60HDA-lesioned mice plus 4-MC, after 5FU): significant increase in HSC recovery | hematopoietic recovery after 5FU with neuroprotective agent (BM, LSKF cells) [7, 13]: increased hematopoietic recovery; also recorded: significantly increased | BM recovery after 5FU in Tα1-Cre:TrkANeo/Neo mice ([7]; sympathectomized mice treated with 4-MC, TrkA restricted to nervous system): recovery comparable to that of wild-type mice
